In patent US7772241B2, “Variolin derivatives and their use as antitumor agents” (Pharma Mar S.A., priority 2001, dated 2010):
Like-named read-outs stand apart in the source and are kept apart here.

Tests used:
LoVo = assay: Inhibition of cells growth by colorimetric (SRB) assay, LoVo
In short: (§1)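 Read-out is sulforhodamine B protein stain (OD 490 nm) after cold TCA fixation, following 48 h continuous exposure to samples spanning 10 to 10^−8 μg/ml.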

LoVo-Dox = assay: Inhibition of cells growth by colorimetric (SRB) assay, LoVo-Dox
In short: as §1

HeLa-APL = assay: Inhibition of cells growth by colorimetric (SRB) assay, HeLa-APL
From the text: (§2) The finality of these assays is to interrupt the growth of a “in vitro” tumor cell culture by means a continued exhibition of the cells to the sample to be testing.
(§3) This form of the assay employs 96 well cell culture microplates of 9 mm diameter (Faircloth, 1988; Mosmann, 1983). Most of the cell lines are obtained from American Type Culture Collection (ATCC) derived from different human cancer types.
(§4) Cells are maintained in RPMI 1640 10% FBS, supplemented with 0.1 g/l penicillin and 0.1 g/l streptomycin sulphate and then incubated at 37° C., 5% CO2 and 98% humidity. For the experiments, cells were harvested from subconfluent cultures using trypsin and resuspended in fresh medium before plating.
(§5) Cells are seeded in 96 well microtiter plates, at 5×10^3 cells per well in aliquots of 195 μl medium, and they are allowed to attach to the plate surface by growing in drug free medium for 18 hours. Afterward, samples are added in aliquots of 5 μl in a ranging from 10 to 10^−8 μg/ml, dissolved in DMSO/EtOH/PBS (0.5:0.5:99). After 48 hours exposure, the antitumor effect are measured by the SRB methodology: cells are fixed by adding 50 μl of cold 50% (wt/vol) trichloroacetic acid (TCA) and incubating for 60 minutes at 4° C. Plates are washed with deionized water and dried. One hundred μl of SRB solution (0.4% wt/vol in 1% acetic acid) is added to each microtiter well and incubated for 10 minutes at room temperature. Unbound SRB is removed by washing with 1% acetic acid. Plates are air dried and bound stain is solubilized with Tris buffer. Optical densities are read on a automated spectrophotometric plate reader at a single wavelength of 490 nm.
(§6) The values for mean +/−SD of data from triplicate wells are calculated. Some parameters for cellular responses can be calculated: GI=growth inhibition, TGI=total growth inhibition (cytostatic effect) and LC=cell killing (cytotoxic effect).

SK-MEL-28 = assay: Inhibition of cells growth by colorimetric (SRB) assay, SK-MEL-28
In short: as §1

K-562 = assay: Inhibition of cells growth by colorimetric (SRB) assay, K-562
In short: as §1

DU-145 = assay: Inhibition of cells growth by colorimetric (SRB) assay, DU-145; conditions: SRB assay, 48 hours exposure
In short: as §1

A-549 = assay: Inhibition of cells growth by colorimetric (SRB) assay, A-549
In short: as §1

HT-29 = assay: Inhibition of cells growth by colorimetric (SRB) assay, HT-29
In short: as §1

IGROV-ET = assay: Inhibition of cells growth by colorimetric (SRB) assay, IGROV-ET
In short: as §1

SK-BR-3 = assay: Inhibition of cells growth by colorimetric (SRB) assay, SK-BR-3; conditions: for GI50 / CC50: Homo sapiens, SK-BR-3, 48 h
In short: as §1

HeLa = assay: Inhibition of cells growth by colorimetric (SRB) assay, HeLa
From the text: as §2, §3, §4, §5, §6

PANC-1 = assay: Inhibition of cells growth by colorimetric (SRB) assay, PANC-1
In short: as §1

IGROV-1 = assay: Inhibition of cells growth by colorimetric (SRB) assay, IGROV-1
In short: as §1

LNCaP = assay: Inhibition of cells growth by colorimetric (SRB) assay, LNCaP; conditions: SRB assay, 48 hours exposure
In short: as §1

CSc1nccc(-c2c3c(O)ccnc3n3c(N)nccc23)n1.Cl [Compound 97]
CC50 (LoVo; Homo sapiens, LoVo, 48 h, read-out: LOVO LC50, SRB assay, 48 hours exposure): 27.7 µM | LOVO TGI (LoVo; SRB assay, 48 hours exposure): 1.27E−05 | GI50 (LoVo; read-out: LOVO GI50, SRB assay, 48 hours exposure): 5.07 µM | CC50 (LoVo-Dox; Homo sapiens, 48 h, read-out: LOVO-DOX LC50, SRB assay, 48 hours exposure): 27.7 µM | LOVO-DOX TGI (LoVo-Dox; SRB assay, 48 hours exposure): 1.93E−05 | GI50 (LoVo-Dox; read-out: LOVO-DOX GI50, SRB assay, 48 hours exposure): 7.51 µM | HELA-APL TGI (HeLa-APL; SRB assay, 48 hours exposure): 1.77E−07 | GI50 (HeLa-APL; read-out: HELA-APL GI50, SRB assay, 48 hours exposure): 0.0787 µM | CC50 (HeLa-APL; read-out: HELA-APL LC50, SRB assay, 48 hours exposure): 1.85 µM | CC50 (SK-MEL-28; Homo sapiens, SK-MEL-28, 48 h, read-out: MEL-28 LC50, SRB assay, 48 hours exposure): 18 µM | MEL-28 TGI (SK-MEL-28; SRB assay, 48 hours exposure): 7.43E−06 | GI50 (SK-MEL-28; read-out: MEL-28 GI50, SRB assay, 48 hours exposure): 3.08 µM | CC50 (K-562; Homo sapiens, K562, 48 h, read-out: K-562 LC50, SRB assay, 48 hours exposure): 24.4 µM | K-562 TGI (K-562; SRB assay, 48 hours exposure): 8.34E−06 | GI50 (K-562; read-out: K-562 GI50, SRB assay, 48 hours exposure): 2.85 µM | DU-145 TGI (DU-145): 3.19E−06 | GI50 (DU-145; read-out: DU-145 GI50): 0.257 µM | CC50 (DU-145; read-out: DU-145 LC50): 12.8 µM | CC50 (A-549; Homo sapiens, A549, 48 h, read-out: A-549 LC50, SRB assay, 48 hours exposure): 22.3 µM | A-549 TGI (A-549; SRB assay, 48 hours exposure): 4.55E−06 | GI50 (A-549; read-out: A-549 GI50, SRB assay, 48 hours exposure): 0.707 µM | CC50 (HT-29; Homo sapiens, HT-29, 48 h, read-out: HT-29 LC50, SRB assay, 48 hours exposure): 18.7 µM | HT-29 TGI (HT-29; SRB assay, 48 hours exposure): 4.85E−06 | GI50 (HT-29; read-out: HT-29 GI50, SRB assay, 48 hours exposure): 0.457 µM | CC50 (IGROV-ET; Homo sapiens, 48 h, read-out: IGROV-ET LC50, SRB assay, 48 hours exposure): 27.7 µM | IGROV-ET TGI (IGROV-ET; SRB assay, 48 hours exposure): 8.12E−06 | GI50 (IGROV-ET; read-out: IGROV-ET GI50, SRB assay, 48 hours exposure): 1.52 µM | GI50 (SK-BR-3; read-out: SK-BR-3 GI50, SRB assay, 48 hours exposure): 1.92 µM | CC50 (SK-BR-3; read-out: SK-BR-3 LC50, SRB assay, 48 hours exposure): 23.6 µM | SK-BR-3 TGI (SK-BR-3; SRB assay, 48 hours exposure): 7.37E−06 | HELA TGI (HeLa; SRB assay, 48 hours exposure): 1.28E−07 | GI50 (HeLa; read-out: HELA GI50, SRB assay, 48 hours exposure): 0.0576 µM | CC50 (PANC-1; Homo sapiens, PANC-1, 48 h, read-out: PANC-1 LC50, SRB assay, 48 hours exposure): 24.6 µM | PANC-1 TGI (PANC-1; SRB assay, 48 hours exposure): 9.98E−06 | GI50 (PANC-1; read-out: PANC-1 GI50, SRB assay, 48 hours exposure): 4.05 µM | CC50 (IGROV-1; Homo sapiens, IGROV-1, 48 h, read-out: IGROV LC50, SRB assay, 48 hours exposure): 27 µM | IGROV TGI (IGROV-1; SRB assay, 48 hours exposure): 3.10E−06 | GI50 (IGROV-1; read-out: IGROV GI50, SRB assay, 48 hours exposure): 0.0931 µM | LN-caP TGI (LNCaP): 2.88E−07 | GI50 (LNCaP; read-out: LN-caP GI50): 0.109 µM | CC50 (LNCaP; read-out: LN-caP LC50): 5.82 µM

COc1ccnc2c1c(-c1ccnc(N)n1)c1ccnc(N)n12.Cl [Compound 116]
TGI LOVO (LoVo; SRB assay, 48 hours exposure): 1.22E−06 | GI50 (LoVo; read-out: GI50 LOVO, SRB assay, 48 hours exposure): 0.55 µM | CC50 (LoVo; read-out: LC50 LOVO, SRB assay, 48 hours exposure): 26.3 µM | TGI LOVO-DOX (LoVo-Dox; SRB assay, 48 hours exposure): 2.59E−06 | GI50 (LoVo-Dox; read-out: GI50 LOVO-DOX, SRB assay, 48 hours exposure): 1.07 µM | CC50 (LoVo-Dox; read-out: LC50 LOVO-DOX, SRB assay, 48 hours exposure): 26.3 µM | GI50 (HeLa-APL; Homo sapiens, 48 h, read-out: GI50 HELA-APL, SRB assay, 48 hours exposure): 0.0989 µM | CC50 (HeLa-APL; Homo sapiens, 48 h, read-out: LC50 HELA-APL, SRB assay, 48 hours exposure): 2.3 µM | TGI HELA-APL (HeLa-APL; SRB assay, 48 hours exposure): 2.17E−07 | TGI MEL-28 (SK-MEL-28; SRB assay, 48 hours exposure): 2.11E−06 | GI50 (SK-MEL-28; read-out: GI50 MEL-28, SRB assay, 48 hours exposure): 1.1 µM | CC50 (SK-MEL-28; read-out: LC50 MEL-28, SRB assay, 48 hours exposure): 10.4 µM | TGI K-562 (K-562; SRB assay, 48 hours exposure): 2.12E−05 | GI50 (K-562; read-out: GI50 K-562, SRB assay, 48 hours exposure): 2.87 µM | CC50 (K-562; read-out: LC50 K-562, SRB assay, 48 hours exposure): 26.3 µM | TGI DU-145 (DU-145): 2.54E−06 | GI50 (DU-145; read-out: GI50 DU-145): 1.13 µM | CC50 (DU-145; read-out: LC50 DU-145): 26.3 µM | TGI A-549 (A-549; SRB assay, 48 hours exposure): 7.68E−06 | GI50 (A-549; read-out: GI50 A-549, SRB assay, 48 hours exposure): 1.15 µM | CC50 (A-549; read-out: LC50 A-549, SRB assay, 48 hours exposure): 26.3 µM | TGI HT-29 (HT-29; SRB assay, 48 hours exposure): 1.88E−05 | GI50 (HT-29; read-out: GI50 HT-29, SRB assay, 48 hours exposure): 6.18 µM | CC50 (HT-29; read-out: LC50 HT-29, SRB assay, 48 hours exposure): 26.3 µM | TGI IGROV-ET (IGROV-ET; SRB assay, 48 hours exposure): 2.50E−06 | GI50 (IGROV-ET; read-out: GI50 IGROV-ET, SRB assay, 48 hours exposure): 1.37 µM | CC50 (IGROV-ET; read-out: LC50 IGROV-ET, SRB assay, 48 hours exposure): 26.3 µM | GI50 (SK-BR-3; read-out: GI50 SK-BR-3, SRB assay, 48 hours exposure): 0.892 µM | CC50 (SK-BR-3; read-out: LC50 SK-BR-3, SRB assay, 48 hours exposure): 3.5 µM | TGI SK-BR-3 (SK-BR-3; SRB assay, 48 hours exposure): 1.55E−06 | GI50 (HeLa; Homo sapiens, HeLa, 48 h, read-out: GI50 HELA, SRB assay, 48 hours exposure): 0.151 µM | TGI HELA (HeLa; SRB assay, 48 hours exposure): 5.26E−07 | TGI PANC-1 (PANC-1; SRB assay, 48 hours exposure): 1.29E−05 | GI50 (PANC-1; read-out: GI50 PANC-1, SRB assay, 48 hours exposure): 1.79 µM | CC50 (PANC-1; read-out: LC50 PANC-1, SRB assay, 48 hours exposure): 26.3 µM | TGI IGROV (IGROV-1; SRB assay, 48 hours exposure): 1.66E−06 | GI50 (IGROV-1; read-out: GI50 IGROV, SRB assay, 48 hours exposure): 0.934 µM | CC50 (IGROV-1; read-out: LC50 IGROV, SRB assay, 48 hours exposure): 26.3 µM | TGI LN-caP (LNCaP): 1.21E−06 | GI50 (LNCaP; read-out: GI50 LN-caP): 0.602 µM | CC50 (LNCaP; read-out: LC50 LN-caP): 2.43 µM
